Source: patent US11845748B2, “Bicyclic pyridine N-oxide derivatives useful as a factor XIa inhibitors” (Janssen Pharmaceutica NV, priority 2021, dated 2023)

Legend:
Factor XIa = Factor XIa (Homo sapiens, UniProt P03951); assay: Factor XIa inhibition assay utilizing a fluorophore-quencher pair peptide substrate (FLINT); format: biochemical; details: kinetic reads at 5 min intervals over 30 min; 30 min preincubation; 5Fam-KLTRAETV-K5Tamra substrate; read-out: FXIa (KIN) IC50
Excerpt: Biological Example 1: Factor XIa Inhibition Assay Utilizing a Fluorophore-Quencher Pair Peptide Substrate
A fluorescence intensity (FLINT) based assay was used to monitor inhibition of Factor XIa. The peptide substrate, 5Fam-KLTRAETV-K5Tamra (purchased from New England Peptide) was chosen based on the […]. Conversion of zymogen […]. The custom peptide used in this assay was based on the Arg146 cleavage site of FXI. The peptide substrate was designed with a fluorophore-quencher pair, where the fluorescence is quenched until FXIa cleaves the 8-mer peptide after the Arg residue. The substrate KM was fit to a substrate inhibition model whereby kcat=0.86 s^−1, KM=12.4 μM, Ki=61.6 μM with an enzymatic efficiency, and kcat/KM=69523 M^−1s^−1.
The Factor XIa FLINT assay was used with the following 5Fam-KLTRAETV-K5Tamra assay buffer: 50 mM Tris, pH 7.5, 100 mM NaCl, 5 mM CaCl2, 0.1 mg/mL BSA, 0.03% CHAPS. Assay buffer was prepared by mixing all ingredients fresh. 5Fam-KLTRAETV-K5Tamra peptide substrate was first prepared at 10 mM in 100% DMSO, then diluted to 3 mM in 100% DMSO. Assay buffer was then added directly to the 3 mM stock of substrate to prepare the 30 μM 2× working concentration (15 μM final concentration). The 2× Factor XIa stock solution was prepared by diluting 6.562 μM stock in 1× assay buffer for a 200 pM working stock solution (100 pM final concentration).
Test compound(s) were run in an 11-point, 3-fold serial dilution with a final top compound concentration of 100 nM. Final DMSO in assay was 2%. FXIa was preincubated with compound for 30-minutes and then substrate was added to initiate the reaction. The assay was run with either end point (EP) reads at 30 min or kinetic (KIN) reads at 5 min intervals over 30 minutes. The time course was linear using 100 μM FXIa greater than 30 minutes. More specifically, the assay was run as follows: • 100 nL of 0.01 mM test compound was dispensed into black 384-well non-binding Greiner BioOne 784900 plate for 0.1 μM final concentration; • 5 μL of 1× assay buffer was dispensed to column 24 (low control) and 5 μL 2× Factor XIa solution was dispensed to columns 1-23 (column 23 high control); • the plate was centrifuged with a “cover” plate at 500 rpm for 1 min the plate was pre-incubated for 30 minutes at room temperature with plate covered; • 5 μL of 2× 5Fam-KLTRAETV-K5Tamra peptide substrate was dispensed into the entire plate, columns 1-24; • the plate was centrifuged with a “cover” plate at 500 rpm for 1 min; • the plate was read monitoring fluorescence intensity on the BMG PHERAStar at room temperature, using fluorescence module 485 nm/520 nm.
Percent inhibition (IC50) curves were generated per compound tested, and data was analyzed using a 4-parameter logistic fit using GeneData Screener. The relative fluorescence unit (RFU) values were normalized to percent inhibition using the following equation: % inhibition=((HC−LC)−(compound−LC)/(HC−LC))*100 where LC—low control=mean signal of no Factor XIa or 100% inhibition of Factor XIa; HC—high control=mean signal of Factor XIa+5Fam-KLTRAETV-K5Tamra peptide substrate with DMSO only.
(§1) An 11-point dose response curve for the test compound(s) was generated using GENDATA to determine IC50 value based on the following equation: Y=Bottom+(Top−Bottom)/(1+10^((log IC50−X)*HillSlope))
where Y is the % inhibition in the presence of X inhibitor concentration, Top=high control=mean signal of Factor XIa+5Fam-KLTRAETV-K5Tamra peptide substrate with DMSO only; Bottom=low control−mean signal of no Factor XIa or 100% inhibition of Factor XIa; HillSlope—Hill coefficient; and IC50=concentration of compound with 50% inhibition in relation to top/high control. […]

human plasma kallikrein = human plasma kallikrein (Homo sapiens, UniProt P03952); assay: Kallikrein inhibition assay utilizing a quenched AMC peptide substrate (FLINT); format: biochemical; details: kinetic reads at 5 min intervals over 30 min; 30 min preincubation; Z-Gly-Pro-Arg-AMC substrate; read-out: Kallikrein (KIN) IC50
human plasma kallikrein, sequence (P03952 391-638 limits assumed): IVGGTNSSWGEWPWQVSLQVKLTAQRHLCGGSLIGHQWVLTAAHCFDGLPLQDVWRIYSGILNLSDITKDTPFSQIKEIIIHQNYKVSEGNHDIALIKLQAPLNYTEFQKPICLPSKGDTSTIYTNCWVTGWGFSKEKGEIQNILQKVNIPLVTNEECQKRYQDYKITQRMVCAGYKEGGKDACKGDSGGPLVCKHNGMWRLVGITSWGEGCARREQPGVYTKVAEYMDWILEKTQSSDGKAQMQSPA
human plasma kallikrein, sequence (P03952 20-390 partner limits assumed): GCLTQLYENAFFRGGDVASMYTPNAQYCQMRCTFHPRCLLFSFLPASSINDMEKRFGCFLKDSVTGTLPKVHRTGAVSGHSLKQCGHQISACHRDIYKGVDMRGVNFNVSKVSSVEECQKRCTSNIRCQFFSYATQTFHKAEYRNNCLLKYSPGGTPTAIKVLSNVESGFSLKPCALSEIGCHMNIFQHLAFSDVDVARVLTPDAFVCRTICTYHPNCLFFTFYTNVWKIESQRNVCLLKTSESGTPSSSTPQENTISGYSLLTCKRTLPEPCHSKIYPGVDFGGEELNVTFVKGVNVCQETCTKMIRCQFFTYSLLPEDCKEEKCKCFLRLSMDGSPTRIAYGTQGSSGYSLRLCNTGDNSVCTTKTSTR
Method: Biological Example 2: Kallikrein Inhibition Assay Utilizing a Quenched AMC Peptide Substrate
A fluorescence intensity (FLINT) based assay was used to monitor inhibition of human plasma kallikrein. The peptide substrate, Z-Gly-Pro-Arg-AMC (Purchased from Bachem; Catalog #I-1150) was chosen based on its relatively low KM for kallikrein which enables running the assay at lower substrate concentrations to control background fluorescence. The kinetic parameters for this substrate were determined by fitting titration data to the Michaelis-Menten equation yielding a KM=40 μM, kcat=0.76 s^−1, and kcat/KM=18932 M^−1s^−1.
The Kallikrein FLINT assay was used with the following Z-Gly-Pro-Arg-AMC assay buffer: 50 mM Tris, pH 7.5, 100 mM NaCl, 5 mM CaCl2, 0.1 mg/mL BSA, 0.03% CHAPS. Assay buffer was prepared by mixing all ingredients fresh. 2× Z-Gly-Pro-Arg-AMC peptide substrate was prepared by diluting 10 mM stock into 1× assay buffer for a 100 μM working concentration (50 μM final concentration). The 2× kallikrein stock solution was prepared by diluting 14.76 μM stock in 1× assay buffer for a 4 nM working stock solution (2 nM final concentration).
Test compound(s) were run in an 11-point, 3-fold serial dilution with a final top compound concentration of 1 μM. Final DMSO in assay was 2%. Plasma kallikrein was pre-incubated for 30-minute with compound and then 50 μM substrate was added to initiate the reaction. The assay was run with kinetic (KIN) reads at 5 min intervals over 30 minutes. The time course was linear using 2 nM kallikrein greater than 30 minutes. More specifically, the assay was run as follows: • 100 nL of 0.1 mM test compound was dispensed into black 384-well non-binding Greiner BioOne 784900 plate for 1 μM final concentration; • 5 μL of 1× assay buffer was dispensed to columns 24 (low control) and 5 μL 2× human kallikrein enzyme solution was dispensed to columns 1-23 (column 23 high control); • the plate was centrifuged with a “cover” plate at 500 rpm for 1 min the plate was pre-incubated for 30 minutes at room temperature with plate covered; • 5 μL of 2× Z-Gly-Pro-Arg-AMC peptide substrate was dispensed into the entire plate, columns 1-24; • the plate was centrifuged with a “cover” plate at 500 rpm for 1 min; • the plate was read monitoring fluorescence intensity on the BMG PHERAStar at room temperature, using fluorescence module 340 nm/440 nm.
Percent inhibition (IC50) curves were generated per compound tested, and data was analyzed using a 4-parameter logistic fit using GeneData Screener. The relative fluorescence unit (RFU) values were normalized to percent inhibition using the following equation: % inhibition=((HC−LC)−(compound−LC)/(HC−LC))*100
where LC—low control=mean signal of […] 100% inhibition of human kallikrein enzyme; HC—high control=mean signal of […]+Z-Gly-Pro-Arg-AMC peptide substrate with DMSO only.
as §1
where Y is the % inhibition in the presence of X inhibitor concentration, Top=high control=mean signal of human kallikrein enzyme+Z-Gly-Pro-Arg-AMC peptide substrate with DMSO only; Bottom=low control−mean signal of no human kallikrein enzyme or 100% inhibition of human kallikrein enzyme; HillSlope—Hill coefficient; and IC50=concentration of compound with 50% inhibition in relation to top/high control.
Representative compounds of formula (I) of the present invention were tested according to the procedure described in Biological Example 1 and Biological Example 2 above, with results as listed in Table 2, below. Results listed in the (ER) column were measured using endpoint reads where a single fluorescence reading was measured for each well at a 30 min timepoint. […]

Factor XIa, sequence (P03951 388-625 limits assumed): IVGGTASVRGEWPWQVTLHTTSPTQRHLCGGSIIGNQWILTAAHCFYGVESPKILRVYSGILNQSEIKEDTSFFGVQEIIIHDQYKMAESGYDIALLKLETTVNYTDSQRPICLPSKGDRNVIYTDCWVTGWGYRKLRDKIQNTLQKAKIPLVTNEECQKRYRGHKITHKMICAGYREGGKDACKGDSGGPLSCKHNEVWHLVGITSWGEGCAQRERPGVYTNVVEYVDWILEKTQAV
Factor XIa, sequence (P03951 19-387 partner limits assumed): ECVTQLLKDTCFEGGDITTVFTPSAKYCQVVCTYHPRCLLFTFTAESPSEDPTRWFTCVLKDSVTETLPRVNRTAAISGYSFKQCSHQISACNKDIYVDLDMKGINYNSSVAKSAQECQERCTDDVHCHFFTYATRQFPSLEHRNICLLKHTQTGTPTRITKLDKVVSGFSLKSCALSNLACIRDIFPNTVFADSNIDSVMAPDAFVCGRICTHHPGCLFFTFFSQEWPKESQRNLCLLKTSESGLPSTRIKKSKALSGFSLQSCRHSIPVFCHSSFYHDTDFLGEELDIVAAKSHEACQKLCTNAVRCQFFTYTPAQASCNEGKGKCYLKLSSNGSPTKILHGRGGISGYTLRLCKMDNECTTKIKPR

Compound | IC50 (Factor XIa) | IC50 (human plasma kallikrein)
Nc1ccc(-c2cnn(C3CCc4cc(-c5c(-n6cnnn6)ccc(Cl)c5F)c[n+]([O-])c43)c2)c(Cl)n1 (racemic) [ID No. 17, 7-(4-(6-Amino-2-chloropyridin-3-yl)-1H-pyrazol-1-yl)-3-(3-Chloro-2-fluoro-6-(1H-tetrazol-1-yl)phenyl)-6,7-dihydro-5H-cyclopenta[b]pyridine 1-oxide] | 5 nM | 432 nM
Cn1ncc(-c2cnn(C3CCc4cc(-c5c(-n6cnnn6)ccc(Cl)c5F)c[n+]([O-])c43)c2)cc1=O (racemic) [ID No. 19, 3-(3-Chloro-2-fluoro-6-(1H-tetrazol-1-yl)phenyl)-7-(4-(1-methyl-6-oxo-1,6-dihydropyridazin-4-yl)-1H-pyrazol-1-yl)-6,7-dihydro-5H-cyclopenta[b]pyridine 1-oxide] | 1170 nM | 6360 nM
Cn1c(-c2cnn(C3CCc4cc(-c5c(-n6cnnn6)ccc(Cl)c5F)c[n+]([O-])c43)c2)cccc1=O (racemic) [ID No. 20, 3-(3-Chloro-2-fluoro-6-(1H-tetrazol-1-yl)phenyl)-7-(4-(1-methyl-6-oxo-1,6-dihydropyridin-2-yl)-1H-pyrazol-1-yl)-6,7-dihydro-5H-cyclopenta[b]pyridine 1-oxide] | 3110 nM | > 10000 nM
Cc1cc(-c2cnn(C3CCc4cc(-c5c(-n6cnnn6)ccc(Cl)c5F)c[n+]([O-])c43)c2)ccn1 (racemic) [ID No. 23, 3-(3-Chloro-2-fluoro-6-(1H-tetrazol-1-yl)phenyl)-7-(4-(2-methylpyridin-4-yl)-1H-pyrazol-1-yl)-6,7-dihydro-5H-cyclopenta[b]pyridine 1-oxide] | 32 nM | 393 nM
[O-][n+]1cc(-c2c(-n3cnnn3)ccc(Cl)c2F)cc2c1C(n1cc(-c3ccnc(C4CC4)c3)cn1)CC2 (racemic) [ID No. 24, 3-(3-Chloro-2-fluoro-6-(1H-tetrazol-1-yl)phenyl)-7-(4-(2-cyclopropylpyridin-4-yl)-1H-pyrazol-1-yl)-6,7-dihydro-5H-cyclopenta[b]pyridine 1-oxide] | 40 nM | 70 nM
Nc1nc(F)c(-c2cnn(C3CCCc4cc(-c5c(-n6cnnn6)ccc(Cl)c5F)c[n+]([O-])c43)c2)cc1Cl (racemic) [ID No. 30, 8-(4-(6-Amino-5-chloro-2-fluoropyridin-3-yl)-1H-pyrazol-1-yl)-3-(3-chloro-2-fluoro-6-(1H-tetrazol-1-yl)phenyl)-5,6,7,8-tetrahydroquinoline 1-oxide] | 1260 nM | 2880 nM

The remaining molecules from weak to strong by IC50 (Factor XIa), led by results:

IC50 (Factor XIa) | IC50 (human plasma kallikrein) | Compound
765 nM | 8480 nM | CC(=O)Nc1ccc(-c2cnn(C3CCCc4cc(-c5c(-n6cnnn6)ccc(Cl)c5F)c[n+]([O-])c43)c2)c(F)n1 (racemic) [ID No. 29, 8-(4-(6-Acetamido-2-fluoropyridin-3-yl)-1H-pyrazol-1-yl)-3-(3-chloro-2-fluoro-6-(1H-tetrazol-1-yl)phenyl)-5,6,7,8-tetrahydroquinoline 1-oxide]
282 nM | 1090 nM | O=C(NC1CC1)c1ccc(-c2cnn(C3CCc4cc(-c5c(-n6cnnn6)ccc(Cl)c5F)c[n+]([O-])c43)c2)cc1 (racemic) [ID No. 18, 3-(3-Chloro-2-fluoro-6-(1H-tetrazol-1-yl)phenyl)-7-(4-(4-(cyclopropylcarbamoyl)phenyl)-1H-pyrazol-1-yl)-6,7-dihydro-5H-cyclopenta[b]pyridine 1-oxide]
25 nM | 316 nM | O=C(Nc1ccc(-c2cnn(C3CCc4cc(-c5c(-n6cnnn6)ccc(Cl)c5F)c[n+]([O-])c43)c2)cc1)C1CC1 (racemic) [ID No. 16, 3-(3-Chloro-2-fluoro-6-(1H-tetrazol-1-yl)phenyl)-7-(4-(4-(cyclopropanecarboxamido)phenyl)-1H-pyrazol-1-yl)-6,7-dihydro-5H-cyclopenta[b]pyridine 1-oxide]
